Literature values, collected in PubChem BioAssay AID1259409 (Chemical Carcinogenesis Research Information System (CCRIS), 2018).

System: rodent chemically induced tumor inhibition, incidence and multiplicity
Test: CCRIS tumor inhibitor studies
Conditions: Carcinogen: AZOXYMETHANE; 25843-45-2; Dose [Inhibitor]: 0; 0.7 ML 2/WK FOR DURATION OF STUDY BEGINNING 1 D PRIOR TO FIRST CARCINOGEN DOSE (STUDY DURATION: 36 WK); Route [Inhibitor]: GAVAGE; Species: RAT; Strain/Sex: F344/MALE; Target Tissue: Type of Lesion: COLON/RECTUM: ADENOMA OR CARCINOMA; Dose [Carcinogen]: 15 MG/KG 1/WK FOR 2 WK; Promoter: NONE USED

CCCCCCCCC/C=C/C=C/C=C/C=C/C=C/C=C/C(=O)OCC
tumour outcome (control, treated, inhibition, significance): 20/40 (50%), 15/33 (45%), 10%, not significant
